What follows are compounds tested against T1, EHMT1 (Homo sapiens, UniProt Q9H9B1) (assay: EHMT1 enzyme assay on peptide substrate (EHMT1 PEP)). Details: read-out: EHMT1 PEP (IC50 μM).
T1 sequence (Q9H9B1 1-1298): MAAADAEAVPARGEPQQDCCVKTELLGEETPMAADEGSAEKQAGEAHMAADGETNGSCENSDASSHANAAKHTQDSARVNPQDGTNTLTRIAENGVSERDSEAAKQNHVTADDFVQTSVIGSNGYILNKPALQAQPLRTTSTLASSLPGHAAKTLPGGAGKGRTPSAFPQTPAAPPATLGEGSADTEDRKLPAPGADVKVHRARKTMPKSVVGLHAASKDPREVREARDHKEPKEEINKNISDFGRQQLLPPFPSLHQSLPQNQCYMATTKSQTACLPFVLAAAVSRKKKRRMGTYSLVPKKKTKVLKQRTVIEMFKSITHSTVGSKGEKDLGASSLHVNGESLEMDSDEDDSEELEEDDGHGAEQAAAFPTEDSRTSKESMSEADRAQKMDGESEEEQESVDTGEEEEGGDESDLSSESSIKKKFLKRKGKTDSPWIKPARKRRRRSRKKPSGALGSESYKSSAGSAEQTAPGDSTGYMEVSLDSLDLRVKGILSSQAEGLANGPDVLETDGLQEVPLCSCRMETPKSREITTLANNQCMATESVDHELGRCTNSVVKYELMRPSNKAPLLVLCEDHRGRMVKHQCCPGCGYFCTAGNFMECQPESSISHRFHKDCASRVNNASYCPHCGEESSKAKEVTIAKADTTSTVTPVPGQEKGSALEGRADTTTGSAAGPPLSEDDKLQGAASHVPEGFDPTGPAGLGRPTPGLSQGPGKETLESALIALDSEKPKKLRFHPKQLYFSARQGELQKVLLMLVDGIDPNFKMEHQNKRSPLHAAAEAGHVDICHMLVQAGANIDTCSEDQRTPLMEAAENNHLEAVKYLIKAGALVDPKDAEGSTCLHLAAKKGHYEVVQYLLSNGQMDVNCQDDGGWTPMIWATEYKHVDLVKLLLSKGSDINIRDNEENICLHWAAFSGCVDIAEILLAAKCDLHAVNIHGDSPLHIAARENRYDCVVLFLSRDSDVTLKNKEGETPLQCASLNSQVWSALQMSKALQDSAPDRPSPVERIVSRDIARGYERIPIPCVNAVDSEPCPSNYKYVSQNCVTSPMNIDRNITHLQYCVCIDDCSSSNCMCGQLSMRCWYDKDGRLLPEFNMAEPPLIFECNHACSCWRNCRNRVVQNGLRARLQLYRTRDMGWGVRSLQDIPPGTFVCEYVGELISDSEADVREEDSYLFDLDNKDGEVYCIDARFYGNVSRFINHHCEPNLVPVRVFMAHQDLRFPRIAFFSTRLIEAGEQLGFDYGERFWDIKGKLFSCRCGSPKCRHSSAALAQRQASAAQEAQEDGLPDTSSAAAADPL
Type: biochemical

Row | IC50 [µM] | SMILES
1 | < 0.1 | CNc1cc(C)nc(Nc2ccc(OC)c(OC[C@@H]3CCN(C4CC4)C3)c2)n1 (single isomer, unassigned) [Compound 481]
2 | 0.1 to 1 | CNc1cc(C)nc(Nc2ccc(OC)c(OC[C@H]3CCN(C4CC4)C3)c2)n1 (single isomer, unassigned) [Compound 482]
3 | > 10 | CNc1ccnc(Nc2ccc(OC)c(OCCOC3CC3)c2)n1 [Compound 453, N^2-(3-(2-cyclopropoxyethoxy)-4-methoxyphenyl)-N^4-methylpyrimidine-2,4-diamine]
4 | > 10 | CNc1cc(C)nc(Nc2ccc(OC)c(OC3CCN(C)CC3)c2)n1 [Compound 455]
5 | 1 to 10 | CNc1cc(C)nc(Nc2ccc(OC)c(OCC3CCN(C4CCCC4)C3)c2)n1 (stereo not shown) [Compound 456, N^2-(3-((1-cyclopentylpyrrolidin-3-yl)methoxy)-4-methoxyphenyl)-N^4,6-dimethylpyrimidine-2,4-diamine]
6 | < 0.1 | CNc1cc(C)nc(Nc2ccc(OC)c(OCC3CCN(C4CC4)C3)c2)n1 (stereo not shown) [Compound 457]
7 | 0.1 to 1 | CNc1cc(C2CCCC2)nc(Nc2ccc(OC)c(OCCCN3CCCC3)c2)n1 [Compound 458, 6-cyclopentyl-N^2-(4-methoxy-3-(3-(pyrrolidin-1-yl)propoxy)phenyl)-N^4-methylpyrimidine-2,4-diamine]
8 | 1 to 10 | CNc1cc(C2CCOCC2)nc(Nc2ccc(OC)c(OCCCN3CCCC3)c2)n1 [Compound 459, N^2-(4-methoxy-3-(3-(pyrrolidin-1-yl)propoxy)phenyl)-N^4-methyl-6-(tetrahydro-2H-pyran-4-yl)pyrimidine-2,4-diamine]
9 | < 0.1 | COc1cnc(Nc2nc(C)cc3[nH]ncc23)cc1OCCCN1CCCC1 [Compound 460, N-(5-methoxy-4-(3-(pyrrolidin-1-yl)propoxy)pyridine-2-yl)-6-methyl-1H-pyrazolo[4,3-c]pyridine-4-amine]
10 | < 0.1 | CNc1cc(C)nc(Nc2ccc(OC)c(OCC3CCN(CCO)C3)c2)n1 (stereo not shown) [Compound 461, 2-(3-((2-methoxy-5-((4-methyl-6-(methylamino)pyrimidin-2-yl)amino)phenoxy)methyl)pyrrolidin-1-yl)ethan-1-ol]
11 | < 0.1 | COc1ccc(Nc2nc(C)cc(NCC3CCOCC3)n2)cc1OCC1CCN(C2CC2)C1 (stereo not shown) [Compound 462, N^2-(3-((1-cyclopropylpyrrolidin-3-yl)methoxy)-4-methoxyphenyl)-6-methyl-N^4-((tetrahydro-2H-pyran-4-yl)methyl)pyrimidine-2,4-diamine]
12 | < 0.1 | CNc1cc(C)nc(Nc2ccc(OC)c(OCCCN(C)C3CC3)c2)n1 [Compound 463, N^2-(3-(3-(cyclopropyl(methyl)amino)propoxy)-4-methoxyphenyl)-N^4,6-dimethylpyrimidine-2,4-diamine]
13 | 0.1 to 1 | COc1cnc(Nc2cc(NCC3CCOCC3)cc(C)n2)cc1OCCCN1CCCC1 [Compound 464, N^2-(5-methoxy-4-(3-(pyrrolidin-1-yl)propoxy)pyridin-2-yl)-6-methyl-N^4-((tetrahydro-2H-pyran-4-yl)methyl)pyridine-2,4-diamine]
14 | < 0.1 | CNc1cc(C)nc(Nc2ccc(OC)c(OCCCN3CC(O)C3)c2)n1 [Compound 465, 1-(3-(2-methoxy-5-((4-methyl-6-(methylamino)pyrimidin-2-yl)amino)phenoxy)propyl)azetidin-3-ol]
15 | > 10 | CNc1cc(C)nc(Nc2ccc(OC)c(OC3CCN(C4CC4)CC3)c2)n1 [Compound 466, N^2-(3-((1-cyclopropylpiperidin-4-yl)oxy)-4-methoxyphenyl)-N^4,6-dimethylpyrimidine-2,4-diamine]
16 | 0.1 to 1 | CNc1cc(C)nc(Nc2ccc(OC)c(OC[C@H]3C[C@@H](N(C)C)C3)c2)n1 [Compound 468]
17 | 1 to 10 | CNc1cc(C)nc(Nc2ccc(OC)c(OC[C@H]3C[C@H](N(C)C)C3)c2)n1 [Compound 470]
18 | 1 to 10 | CCn1nc(Nc2nccc3[nH]ccc23)cc1COCCN1CCCC1 [Compound 471]
19 | 0.1 to 1 | CNc1cc(Nc2cc(OC[C@@H]3CCN(C)C3)c(OC)cn2)nc(C)n1 [Compound 473]
20 | < 0.1 | CNc1cc(C)nc(Nc2cc(OC[C@@H]3CCN(C)C3)c(OC)cn2)c1 [Compound 475]
21 | 0.1 to 1 | CNc1ccnc(Nc2ccc(OC)c(OC[C@@H]3CN(C)C[C@@H]3C)c2)n1 [Compound 477]
22 | > 10 | CNc1ccnc(Nc2ccc(OC)c(OCc3nnc(C4CC4)[nH]3)c2)n1 [Compound 478]
23 | > 10 | CNc1ccnc(Nc2ccc(OC)c(OCc3ncn(C4CC4)n3)c2)n1 [Compound 480]
24 | < 0.1 | CNc1cc(C(C)C)nc(Nc2ccc(OC)c(OCCCN3CCCC3)c2)n1 [Compound 483]
25 | < 0.1 | COc1cnc(Nc2nc(C)cc3[nH]c(C)cc23)cc1OCCCN1CCCC1 [Compound 485]
26 | > 10 | COc1ccc(Nc2nc(C)cc3[nH]ccc23)cc1OCCCN1CCCC1 [Compound 486]

Row | IC50 [µM] | SMILES
27 | 0.1 to 1 | CNc1cc(C)nc(Nc2ccc(OC)c([C@H]3C[C@@H]3CN(C)C)c2)n1 [Compound 487]
28 | < 0.1 | CNc1cc(C)nc(Nc2ccc(OC)c([C@H]3C[C@H]3CN(C)C)c2)n1 [Compound 488]
29 | 0.1 to 1 | CNc1cc(C)nc(Nc2ccc(OC)c(OC(C#N)CCN3CCCC3)c2)n1 (stereo not shown) [Compound 489]
30 | < 0.1 | CNc1cc(C)nc(Nc2ccc(OC)c(OCCCN3CCC3)c2)n1 [Compound 490]
31 | < 0.1 | CNc1cc(C)nc(Nc2ccc(OC)c(OC[C@@H]3CN(C)C[C@H]3O)c2)n1 [Compound 491]
32 | < 0.1 | CNc1cc(C)nc(Nc2ccc(OC)c(OC[C@@H]3CN(C)C[C@@H]3O)c2)n1 [Compound 492]
33 | < 0.1 | COc1cnc(Nc2nc(C)cc3[nH]ccc23)cc1OCC1CCN(C2CC2)C1 (stereo not shown) [Compound 494]
34 | < 0.1 | COc1cnc(Nc2nc(C)cc3[nH]ccc23)cc1OC[C@H]1CCN(C2CC2)C1 [Compound 494a]
35 | < 0.1 | COc1cnc(Nc2nc(C)cc3[nH]ccc23)cc1OC[C@@H]1CCN(C2CC2)C1 [Compound 495]
36 | 0.1 to 1 | CNc1cc(C)nc(Nc2cc(Cl)c(OC)c(OCCCN3CCCC3)c2)n1 [Compound 496]
37 | 0.1 to 1 | CCc1ccc(Nc2nc(C)cc(NC)n2)cc1OCCCN1CCCC1 [Compound 497]
38 | 0.1 to 1 | CNc1cc(C)nc(Nc2ccc(OC)c(OCCCN3CCC4(CC4)C3)c2)n1 [Compound 498, N^2-(3-(3-(5-azaspiro[2.4]heptan-5-yl)propoxy)-4-methoxyphenyl)-N^4,6-dimethylpyrimidine-2,4-diamine]
39 | 0.1 to 1 | CNc1cc(C)nc(Nc2ccc(OC)c(OCCCCN(C)C)c2)n1 [Compound 502]
40 | 1 to 10 | CNc1cc(C)nc(Nc2ccc(OC)c(OCCC3CCN(C)C3)c2)n1 (stereo not shown) [Compound 503]
41 | 0.1 to 1 | CNc1cc(C)nc(Nc2ccc(OC)c(OCCCN3CCCC3C)c2)n1 (stereo not shown) [Compound 504, N^2-(4-methoxy-3-(3-(2-methylpyrrolidin-1-yl)propoxy)phenyl)-N^4,6-dimethylpyrimidine-2,4-diamine]
42 | < 0.1 | CNc1cc(C)nc(Nc2ccc(OC)c(OCCCN3CC4CC4C3)c2)n1 (stereo not shown) [Compound 506]
43 | < 0.1 | COc1cnc(Nc2nccc3[nH]ccc23)cc1OCCCN1CC2CC2C1 (stereo not shown) [Compound 507]
44 | 1 to 10 | CNc1cc(C)nc(Nc2ccc(OC)c(OCCC3CN(C)C3)c2)n1 [Compound 508]
45 | < 0.1 | CNc1cc(Nc2cc(OCCCN3CC4CC4C3)c(OC)cn2)nc(C)c1F (stereo not shown) [Compound 509]
46 | < 0.1 | CNc1cc(C)nc(Nc2ccc(OC)c(OCC3CN(C4CC4)C3)c2)n1 [Compound 510]
47 | < 0.1 | CNc1cc(C)nc(Nc2cnc(OC)c(OC[C@@H]3CCN(C4CC4)C3)c2)n1 [Compound 512]
48 | < 0.1 | CNc1cc(C)nc(Nc2cnc(OC)c(OCCCN3CC4CC4C3)c2)n1 (stereo not shown) [Compound 514]
49 | 1 to 10 | CCc1ncc(Nc2nc(C)cc(NC)n2)cc1OCCCN1CCCC1 [Compound 515]
50 | 1 to 10 | CNc1cc(C)nc(Nc2cnc(C3CC3)c(OCCCN3CCCC3)c2)n1 [Compound 516]
51 | 0.1 to 1 | CNc1cc(C)nc(Nc2ccc(OC)c(OCC3CCCN(C4CC4)C3)c2)n1 (stereo not shown) [Compound 517a]
52 | 0.1 to 1 | CNc1cc(C)nc(Nc2ccc(OC)c(OC[C@H]3CCCN(C4CC4)C3)c2)n1 [Compound 517b]

Source: patent US20210198277A1, “AMINE-SUBSTITUTED ARYL OR HETEROARYL COMPOUNDS” (Epizyme, Inc., priority 2016, published 2021)
